Patent US8633168B2, “Inhibitors of S-adenosyl-L-methionine decarboxylase” (Genzyme Corporation, priority 2007, dated 2014)

Legend:
[1] = Permeability through lipid soaked artificial membrane; type: in vitro ADME; settings: for Perm.: Table 2; for Papp: PAMPA
Description: A stock solution for each test compound was prepared at 10 mM in DMSO. These were diluted into phosphate buffer and placed on one side (donor) of a two chamber microtiter plate separated by a lipid soaked membrane. With time, the compound passively diffused across the membrane barrier and the concentration in the second chamber (acceptor) increases. At the end of the experiment, drug concentration was determined in both the donor and acceptor solutions by UV absorbance. The permeability was calculated from the change in concentration, surface area, and incubation time.

[2] = test system: T. cruzi; assay: Cell-based screening against T. cruzi; settings: Trypanosoma cruzi; Screening Data
[3] = test system: T. b. brucei - STIB795; assay: In vivo efficacy, acute T. b. brucei STIB795 infection model in mice; design: species or system mouse (NMRI); settings: for average (survival days) / cured/infected: 4 × 50 mg/kg i.p., NMRI mice; for average (survival days): control 6; for activity in the model (lengthening the survival days) / mice cured: STIB795 model, footnote of Table 4; for protection from lethal effects of infection: controls died on average by Day 6
Description: Compounds are tested for efficacy in the acute model for T. b. brucei infection (Bitonti A J, Byers T L, Bush T L, Casara P J, Bacchi C J, Clarkson A B, Jr., McCann P P, Sjoerdsma A, 1990. Cure of Trypanosoma brucei brucei and Trypanosoma brucei rhodesiense infections in mice with an irreversible inhibitor of S-adenosylmethionine decarboxylase. Antimicrob Agents Chemother 34: 1485-1490). Briefly, mice are infected with 1×10^4 strain STIB 795 trypanosomes on Day 0, then treated once/day (50 mg/kg i.p) with test compound for 4 days starting on Day 3. Animals are assessed by microscopic examination of blood smears twice/week through Day 60. Untreated animals generally die by Days 7-9.

[4] = physchem

| Perm. [1] | IC50 [2] | Permeability ([1]; Example 12 chart) | Compound | Papp ([1]; Example 12 chart) | survival of treated animals [3] | average (survival days) [3] | cured/infected ([3]; 20 Days) | cured/infected ([3]; >30 Days) | parasites on Day 20 ([3]; Day 20) | parasites on Day 30 ([3]; Day 30) | activity in the model (lengthening the survival days) [3] | mice cured ([3]; listed as Compound No. 4) | protection from lethal effects of infection [3] | cured/infected ([3]; 26 Days) | mice cured [3] | logD [4] |
| --- | --- | --- | --- | --- | --- | --- | --- | --- | --- | --- | --- | --- | --- | --- | --- | --- |
| 0.00 10-6 cm/s | > 85 µM | – | CN(C/C=C\CN)C[C@H]1O[C@@H](n2cnc3c(N)ncnc32)[C@H](F)[C@@H]1O (stereo in doubt) [Compound 1] | – | – | – | – | – | – | – | – | – | – | – | – | – |
| 0.00 10-6 cm/s | > 85 µM | – | CN(C/C=C\CN)C[C@H]1O[C@@H](n2cnc3c(N)ncnc32)[C@@H](F)[C@@H]1O [Compound 2] | – | – | – | – | – | – | – | – | – | – | – | – | – |
| 0.36 10-6 cm/s | > 85 µM | 0.36 10−6 cm/sec | CN(C/C=C\CN)C[C@H]1O[C@@H](n2cnc3c(N)nc(Cl)nc32)[C@H](O)[C@@H]1O [Compound 3] | – | – | – | – | – | – | – | – | – | – | – | – | – |

| Compound | Perm. [1] | IC50 [2] | Permeability ([1]; Example 12 chart) | Papp ([1]; Example 12 chart) | survival of treated animals [3] | average (survival days) [3] | cured/infected ([3]; 20 Days) | cured/infected ([3]; >30 Days) | parasites on Day 20 ([3]; Day 20) | parasites on Day 30 ([3]; Day 30) | activity in the model (lengthening the survival days) [3] | mice cured ([3]; listed as Compound No. 4) | protection from lethal effects of infection [3] | cured/infected ([3]; 26 Days) | mice cured [3] | logD [4] |
| --- | --- | --- | --- | --- | --- | --- | --- | --- | --- | --- | --- | --- | --- | --- | --- | --- |
| Cc1nc2c(N)ncnc2n1[C@@H]1O[C@H](CN(C)C/C=C\CN)[C@@H](O)[C@H]1O (stereo in doubt) [Compound 4] | 0.22 10-6 cm/s | > 85 µM | – | 0.22 ×10⁻⁶ cm/s | all survived through Day 30 | >30 days | 20 Days 0/4 | 1/4 | appeared free of parasites | parasites were again evident | active in the model in terms of lengthening the survival days | ¼ | protected mice from lethal effects of infection | – | – | – |
| CN(C/C=C\CN)CC1OC(n2cnc3c(N)ncnc32)C(O)C1O (stereo not drawn) [MDL-73811, reference compound] | 0.13 10-6 cm/s | 19.4 µM | – | 1.1 ×10⁻⁶ cm/s | all survived through Day 30 | >30 days | – | 1/4 | – | – | active in the model in terms of lengthening the survival days | – | protected mice from lethal effects of infection | 26 Days 2/4 | ¼ | -1.8 |
